Experimental data as given in patent US20250115558A1, “PYRIDAZINE DERIVATIVES AND RELATED USES” (NodThera Limited, priority 2023, published 2025).

Experiments:
THP-1 = THP-1 IC50 assay; format: cell-based; conditions: Homo sapiens; THP-1 cells
[1] = test system: IL-1β release upon NLRP3 activation in peripheral blood mononuclear cells (PBMC); assay: PBMC IC50 Determination Assay; format: cell-based; conditions: Homo sapiens; inhibition of IL-1β release; LPS-primed PBMC stimulated with ATP or nigericin
Summary of the method: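 Human PBMC from buffy coats primed 3 h with LPS (1 μg/mL in protocol B), then compound for 30 min, then ATP (5 mM) or nigericin (10 μM; protocol A only) for 1 h. IL-1β released into medium measured by ELISA at 450 nm (protocol A) or HTRF at […] (protocol B).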

Row | SMILES | IC50 (THP-1) [µM] | IC50 [1] [µM]
1 | Cc1cc(Cl)cc(O)c1-c1ccc(CN(C)[C@H]2CC(=O)N(C)C2)nn1 [Compound 91, (4S)-4-({[6-(4-Chloro-2-hydroxy-6-methylphenyl)pyridazin-3-yl]methyl}(methyl)amino)-1-methylpyrrolidin-2-one] | 1 to 3 | 1 to 3
2 | Cc1cc(C(F)(F)F)cc(O)c1-c1ccc(CNCc2cnccn2)nn1 [Compound 92, 3-Methyl-2-(6-(((pyrazin-2-ylmethyl)amino)methyl)pyridazin-3-yl)-5-(trifluoromethyl)phenol] | 3 to 10 | 1 to 3
3 | CNCc1ccc(-c2c(C)cc(C(F)(F)F)cc2O)nn1 [Compound 93] | 1 to 3 | 1 to 3
4 | Cc1cc(C(F)(F)F)cc(O)c1-c1ccc(CN(C)C)nn1 [Compound 94] | 1 to 3 | 1 to 3
5 | Cc1cc(C(F)(F)F)cc(O)c1-c1ccc(CNCC2CC2)nn1 [Compound 97] | 1 to 3 | 0.5 to 1
6 | Cc1cc(C(F)(F)F)cc(O)c1-c1ccc(CNC2CCCCC2)nn1 [Compound 100] | 1 to 3 | 1 to 3
7 | Cc1cc(C(F)(F)F)cc(O)c1-c1ccc(CNC2CCCOC2)nn1 (centres unmarked) [Compound 102] | 1 to 3 | 0.5 to 1
8 | Cc1cc(C(F)(F)F)cc(O)c1-c1ccc(CNCC2COC2)nn1 [Compound 104] | 1 to 3 | 1 to 3
9 | Cc1cc(C(F)(F)F)cc(O)c1-c1ccc(CNCC2CCOC2)nn1 (centres unmarked) [Compound 105] | 3 to 10 | 1 to 3
10 | Cc1cc(C(F)(F)F)cc(O)c1-c1ccc(CNCC2CCCO2)nn1 (centres unmarked) [Compound 106] | 3 to 10 | 1 to 3
11 | Cc1cc(C(F)(F)F)cc(O)c1-c1ccc(CNCC2CCCCO2)nn1 (centres unmarked) [Compound 107] | 3 to 10 | 3 to 10
12 | Cc1cc(C(F)(F)F)cc(O)c1-c1ccc(CNCC2CCCOC2)nn1 (centres unmarked) [Compound 108] | 3 to 10 | 3 to 10
13 | Cc1cc(C(F)(F)F)cc(O)c1-c1ccc(CNCC2CCOCC2)nn1 [Compound 109] | 3 to 10 | 3 to 10
14 | Cc1cc(C(F)(F)F)cc(O)c1-c1ccc(CNC2CCN(C)CC2)nn1 [Compound 110] | 1 to 3 | 1 to 3
15 | Cc1cc(C(F)(F)F)cc(O)c1-c1ccc(CNC2CCN(C)C(=O)C2)nn1 (centres unmarked) [Compound 112] | 1 to 3 | 0.5 to 1
16 | Cc1cc(C(F)(F)F)cc(O)c1-c1ccc(CNC2CCN(C)C2=O)nn1 (centres unmarked) [Compound 113] | 1 to 3 | 0.5 to 1
17 | COCCNCc1ccc(-c2c(C)cc(C(F)(F)F)cc2O)nn1 [Compound 115] | 1 to 3 | 1 to 3
18 | Cc1cc(C(F)(F)F)cc(O)c1-c1ccc(CNCCN(C)C)nn1 [Compound 116] | 3 to 10 | 3 to 10
19 | Cc1cc(C(F)(F)F)cc(O)c1-c1ccc(CNCC(C)(C)O)nn1 [Compound 117] | 1 to 3 | 0.5 to 1
20 | Cc1cc(C(F)(F)F)cc(O)c1-c1ccc(CNCCC(C)(C)O)nn1 [Compound 118] | 3 to 10 | 1 to 3

Row | SMILES | IC50 (THP-1) [µM] | IC50 [1] [µM]
21 | Cc1cc(C(F)(F)F)cc(O)c1-c1ccc(Cn2ccc(=N)nc2)nn1 [Compound 120] | 3 to 10 | ≥ 10
22 | Cc1cc(C(F)(F)F)cc(O)c1-c1ccc(Cn2ccc(=N)cn2)nn1 [Compound 121] | 3 to 10 | ≥ 10
23 | Cc1cn(Cc2ccc(-c3c(C)cc(C(F)(F)F)cc3O)nn2)c(=N)s1 [Compound 125] | 1 to 3 | 1 to 3
24 | Cc1cc(C(F)(F)F)cc(O)c1-c1ccc(CNCc2ccnn2C)nn1 [Compound 126] | 1 to 3 | 1 to 3
25 | Cc1cc(C(F)(F)F)cc(O)c1-c1ccc(CNCc2ccn(C)n2)nn1 [Compound 127] | 1 to 3 | 0.5 to 1
26 | Cc1cc(C(F)(F)F)cc(O)c1-c1ccc(CNCc2cnn(C)c2)nn1 [Compound 128] | 1 to 3 | 1 to 3
27 | Cc1cc(C(F)(F)F)cc(O)c1-c1ccc(CN(C)C2CCOCC2)nn1 [Compound 129] | 1 to 3 | 1 to 3
28 | Cc1cc(C(F)(F)F)cc(O)c1-c1ccc(CN2CCN(C)CC2)nn1 [Compound 131] | 3 to 10 | 1 to 3
29 | Cc1cc(C(F)(F)F)cc(O)c1-c1ccc(CN2CCN(C)C(=O)C2)nn1 [Compound 132] | 1 to 3 | 1 to 3
30 | Cc1cc(C(F)(F)F)cc(O)c1-c1ccc(CNC2CCS(=O)(=O)CC2)nn1 [Compound 137] | 1 to 3 | 1 to 3
31 | Cc1cc(C(F)(F)F)cc(O)c1-c1ccc(CNCc2ccccc2)nn1 [Compound 138] | 1 to 3 | 0.5 to 1
32 | Cc1cc(C(F)(F)F)cc(O)c1-c1ccc(CNC2CCOC(C)C2)nn1 (centres unmarked) [Compound 139] | 1 to 3 | 0.5 to 1
33 | Cc1cc(C(F)(F)F)cc(O)c1-c1ccc(CNCc2cccs2)nn1 [Compound 141] | 1 to 3 | < 0.5
34 | Cc1cc(C(F)(F)F)cc(O)c1-c1ccc(CNCCN2CCOCC2)nn1 [Compound 144] | 3 to 10 | 1 to 3
35 | Cc1cc(C(F)(F)F)cc(O)c1-c1ccc(C[n+]2cccc(N)c2)nn1 [Compound 145] | 1 to 3 | 3 to 10
36 | Cc1cc(NCc2ccc(-c3c(C)cc(C(F)(F)F)cc3O)nn2)on1 [Compound 149] | 1 to 3 | 1 to 3
37 | Cc1cc(C(F)(F)F)cc(O)c1-c1ccc(CN[C@H]2CC[C@](C)(O)CC2)nn1 [Compound 152] | 1 to 3 | 1 to 3
38 | Cc1cc(C(F)(F)F)cc(O)c1-c1ccc(CN[C@H]2CC[C@@](C)(O)CC2)nn1 [Compound 153] | 1 to 3 | 1 to 3
39 | Cc1cc(C(F)(F)F)cc(O)c1-c1ccc(CNC2CN3CCC2CC3)nn1 (centres unmarked) [Compound 154] | ≥ 10 | ≥ 10

The next lines start with results.

Row | IC50 (THP-1) [µM] | SMILES | IC50 [1] [µM]
40 | < 0.5 | Cc1cc(C(F)(F)F)cc(O)c1-c1ccc(CNCC(F)(F)F)nn1 [Compound 95] | < 0.5
41 | 0.5 to 1 | Cc1cc(C(F)(F)F)cc(O)c1-c1ccc(CNCC(F)F)nn1 [Compound 96] | < 0.5
42 | 0.5 to 1 | CCNCc1ccc(-c2c(C)cc(C(F)(F)F)cc2O)nn1 [Compound 98] | < 0.5
43 | 0.5 to 1 | Cc1cc(C(F)(F)F)cc(O)c1-c1ccc(CNC(C)C)nn1 [Compound 99] | < 0.5
44 | 0.5 to 1 | Cc1cc(C(F)(F)F)cc(O)c1-c1ccc(CNC2CCCC2)nn1 [Compound 101] | < 0.5
45 | < 0.5 | Cc1cc(C(F)(F)F)cc(O)c1-c1ccc(CNC2CCOC2)nn1 (centres unmarked) [Compound 103] | < 0.5
46 | < 0.5 | Cc1cc(C(F)(F)F)cc(O)c1-c1ccc(CNC2CCC(=O)N(C)C2)nn1 (centres unmarked) [Compound 111] | < 0.5
47 | 0.5 to 1 | Cc1cc(C(F)(F)F)cc(O)c1-c1ccc(CNC2CC(=O)N(C)C2=O)nn1 (centres unmarked) [Compound 114] | < 0.5
48 | 0.5 to 1 | Cc1cc(C(F)(F)F)cc(O)c1-c1ccc(Cn2ccccc2=N)nn1 [Compound 119] | 0.5 to 1
49 | 0.5 to 1 | Cc1cc(C(F)(F)F)cc(O)c1-c1ccc(CNc2ccn(C)n2)nn1 [Compound 122] | < 0.5
50 | 0.5 to 1 | Cc1cc(C(F)(F)F)cc(O)c1-c1ccc(Cn2ccn(C)c2=N)nn1 [Compound 123] | 1 to 3
51 | < 0.5 | Cc1cc(C(F)(F)F)cc(O)c1-c1ccc(CNc2cnoc2)nn1 [Compound 124] | < 0.5
52 | 0.5 to 1 | Cc1cc(C(F)(F)F)cc(O)c1-c1ccc(CN2CCOCC2)nn1 [Compound 130] | 0.5 to 1
53 | 0.5 to 1 | Cc1cc(C(F)(F)F)cc(O)c1-c1ccc(CN2CCCC2)nn1 [Compound 133] | < 0.5
54 | < 0.5 | Cc1cc(C(F)(F)F)cc(O)c1-c1ccc(CN2CCCC2=O)nn1 [Compound 134] | < 0.5
55 | < 0.5 | Cc1cc(C(F)(F)F)cc(O)c1-c1ccc(CN2CCCCC2)nn1 [Compound 135] | < 0.5
56 | 0.5 to 1 | Cc1cc(C(F)(F)F)cc(O)c1-c1ccc(CNC2CCSCC2)nn1 [Compound 136] | 0.5 to 1
57 | 0.5 to 1 | COC1CCC(NCc2ccc(-c3c(C)cc(C(F)(F)F)cc3O)nn2)CC1 (centres unmarked) [Compound 140] | < 0.5
58 | 0.5 to 1 | CC(=O)N1CCC(NCc2ccc(-c3c(C)cc(C(F)(F)F)cc3O)nn2)CC1 [Compound 142] | < 0.5
59 | 0.5 to 1 | Cc1cc(C(F)(F)F)cc(O)c1-c1ccc(CNc2cnccn2)nn1 [Compound 146] | 0.5 to 1
60 | < 0.5 | Cc1cc(C(F)(F)F)cc(O)c1-c1ccc(CNc2cnsc2)nn1 [Compound 150] | < 0.5
61 | < 0.5 | Cc1cc(C(F)(F)F)cc(O)c1-c1ccc(CN2CCCCC2=O)nn1 [Compound 151] | < 0.5
